US9695119B2, “Methionine analogs and methods of using same” (Bioxiness Pharmaceuticals, Inc., priority 2008, dated 2017)

What was measured:
Assay type in all cases: cell-based
E. coli (DH5-α) [1] = assay: Growth inhibition of E. coli by methionine analogs, 96-well plate, OD 550 nm over time; conditions: for Absorbance: 12.5 mM, OD 550 nm
Description: Comparative Minimum Bactericidal Concentration (MBC) results provide estimates of the susceptibility of various test articles against test organisms. A modification of the […] (NCCL) Standardized Protocol “Methods for dilution antimicrobial susceptibility tests for bacteria that grow aerobically” was used in these studies. Sterile Phosphate Buffer Saline (PBS) at pH 7.0 (vehicle) was used as the diluent. Use of such diluent allows for the determination of the intrinsic activity of our test articles in the absence of any interfering molecules. Specifically, each test article was diluted using 2-fold serial dilution in 96-well plate to give a range of concentrations from approximately 50 mM to 0.05 mM in a final volume of 0.1 mL. Each dilution was inoculated with 5×10^5 CFU/mL test bacteria. The initial optical density as absorbance of each well was read at OD 550 nm using ThermoMax plate reader. […] At various time intervals post-treatment, OD reading at 550 nm was recorded at various time intervals. FIG. 1A and Table 1 show time dependent growth inhibition capability of analogs on E. coli at 12.5 mM. For FIGS. 1A and 1B, the 96-well plate format was used to culture E. coli (DH5-α) cells in M9 minimal media supplemented with glucose (M9) or same media supplemented with a range of concentrations of various analogs. Experiments were carried out in duplicate.

[2] = tested on: test bacteria (gram positive and gram negative microorganisms commonly associated with wound infection); assay: Broad spectrum bacterial growth inhibition, all test species together; conditions: different bacteria in M9 minimal media
Method: Table 2 and FIG. 2 summarizes a series of studies, which were performed to test eradication of bacterial growth using various species (representative strains of gram positive and gram negative microorganisms commonly associated with wound infection). A 96-well plate format was used to culture different bacteria in M9 minimal media supplemented with glucose (M9) or same media supplemented with a range of concentrations of various analogues (Methionine, I-AA and I-AB). Experiments were carried out in duplicate.

E. coli (DH5-α) [3] = assay: MBC spot inoculation onto gridded agar plate (growth or no growth); conditions: spot inoculation from well 12, 11 and 10
Method: MBC was determined by plating 5 μL of each sample onto a gridded agar plate (see, for example, FIG. 1B). Plates were then incubated overnight at 37° C., and examined for growth or no growth. The concentration at which there was a complete absence of colony growth was determined to be the MBC. For FIGS. 1A and 1B, the 96-well plate format was used to culture E. coli (DH5-α) cells in M9 minimal media supplemented with glucose (M9) or same media supplemented with a range of concentrations of various analogs. Experiments were carried out in duplicate.

CSCC[C@H](NC(=O)CN)C(=O)NO.Cl [I-AB, (S)-2-(2-aminoacetamido)-N-hydroxy-4-(methylthio)butanamide hydrochloride]
Absorbance (E. coli (DH5-α) [1]; E. coli, well 12, time 0 hrs): 0.085 | Absorbance (E. coli (DH5-α) [1]; E. coli, well 12, time 1 hrs): 0.095 | Absorbance (E. coli (DH5-α) [1]; E. coli, well 12, time 2 hrs): 0.111 | Absorbance (E. coli (DH5-α) [1]; E. coli, well 12, time 3 hrs): 0.104 | Absorbance (E. coli (DH5-α) [1]; E. coli, well 12, time 3.75 hrs): 0.090 | Absorbance (E. coli (DH5-α) [1]; E. coli, well 12, time 5 hrs): 0.094 | Absorbance (E. coli (DH5-α) [1]; E. coli, well 12, time 6.5 hrs): 0.090 | Absorbance (E. coli (DH5-α) [1]; E. coli, well 12, time 7.25 hrs): 0.089 | Absorbance (E. coli (DH5-α) [1]; E. coli, well 12, time 23 hrs): 0.091 | Concentration dependence of bacterial growth inhibition (E. coli (DH5-α) [1]; E. coli, spot inoculated agar plate (FIG. 1B)): concentration-dependent | E. coli growth inhibition (E. coli (DH5-α) [1]; as compared to M9 and other analogs): significantly inhibited | Concentration dependence of bacterial growth inhibition [2]: concentration-dependent | Time within which most bacteria were killed [2]: ≤ 24 h | Re-growth after spot inoculation on agar plate (E. coli (DH5-α) [3]): absence of re-growth
